According to US12030891B2, “Xanthonic compounds and their use as antifouling agents” (CIIMAR—CENTRO INTERDISCIPLINAR DE INVESTIGACAO MARINHA E …, priority 2018, dated 2024):

Key:
[1] = tested on: Mytilus galloprovincialis larvae; assay: Anti-settlement bioassay on xanthonic based marine coatings; format: in vivo; conditions: for reduction of larval settlement: polyurethane based marine paint coating (1.7 wt. %); for reduction in the larvae settlement: incorporated in polyurethane (PU) marine paint at 2 wt %
Experimental: None instead, and depending on the xanthonic chemical functionalities and density, minor adjustments on those proportions were performed, in order to maintain the main coatings properties (e.g. curing time and adhesion). In addition, and to promote the compatibility and homogeneity of the antifoulants in the corresponding polymeric formulations, a prior dissolution step, in accurate pure and dehumidified organic solvents, may be comprised, followed by its addition and blending to the paint components system. The selection and content of the organic solvent must also rely on its compatibility with the components of each polymeric system.
The antifouling effectiveness of xanthonic based marine coating formulations was assessed by an in vivo anti-settlement bioassay on coated culture multiwell plates, using Mytilus galloprovincialis adhesive mussel plantigrades larvae as target species.

Artemia salina = Artemia salina lethality bioassay; format: in vivo; conditions: even at 50 μM, 48 h of exposure
Experimental: General toxicity to non-target species was evaluated using the brine shrimp (Artemia salina) lethality test (Meyer et al., 1982). A. salina cysts were allowed to hatch in nutrient-enriched seawater for approximately 48 hours at 25° C. Newly hatched instar I nauplii were harvested for toxicity test performed in 96-wells microplates with eight replicates per condition and 15-20 nauplii per well. Test solutions of the most promising sulfated antifouling compounds (50 and 25 μM) were prepared in filtered seawater. K2Cr2O7 (13.6 μM) was included as positive control and DMSO as negative control. Percentage of mortality was determined at 48 h of exposure.

[2] = Luminescent Vibrio fischeri ecotoxicity assay (ISO11348); format: cell-based; conditions: luminescent Vibrio fischeri bacteria (NRRL-B-11177), contact time of 30 min, read-out: LC50 (inhibition of light radiation emitted)
Experimental: Luminescent Vibrio fischeri ecotoxicity assessment (ISO11348) was performed by IK4 TEKNIKER accordingly to the EU hazard assessment of substances and European Ecolabel (ISO 113482). Luminescent Vibrio fischeri bacteria test (NRRL-B-11177) was used as a standard test to evaluate the ecotoxicity of the most promising AF compounds. Vibrio fischeri bacteria from HACH-LANGE GmbH were grown in laboratory in standard conditions according to guidelines and exposed to a dilution serial of each compound (1000, 500, 250, 125, 62.5 mg/L). After 5, 15 and 30 min of exposure, the light emitted as a by-product of Vibrio fischeri cellular respiration was measured at 490 nm. Any inhibition of cellular activity results in a decreased rate of respiration and a corresponding decrease in the rate of luminescence. The decrease of bacterial luminescence measured after 5, 15 or 30 min of exposition was used as test endpoint. Luminescence was measured using a LUMIStox photometer from DR LANGE, after a contact time of 15 min and 30 min at 15±1° C., taking into account a correction factor, fk, which is a measure of intensity change of control samples during the exposure time.
The pH of all samples was within the interval 6.0-8.5. A 2% solution of sodium chloride (NaCl) in deionized water (20 g/L) was used as dilution medium and K2Cr2O7 11.3 μg·mL^−1) was used as positive control.

[3] = tested on: Phaeodactylum tricornutum; assay: Algae growth inhibition test (OECD 201); format: cell-based
Experimental: This test was executed using […], which contains all the material necessary to perform growth inhibition tests with the marine diatom Phaeodactylum Tricornutum. The species of alga Phaeodactylum Tricornutum, were incubated with the testing leaching samples, for 72 hours, in disposable cells of 10 cm path-length. […] This terminology is used instead of the standard EC50 when the test material is not completely soluble at the test treat rates.

[4] = Leaching test of antifoulant from coatings (adapted from ISO15181); format: physicochemical; conditions: PU coating, 45 days submerged in artificial seawater
Daphnia magna = assay: Daphnia acute immobilization test (OECD 202); format: in vivo
Experimental: This test was performed using DAPHTOXKIT F MAGNATM. Daphnia magna are commonly known as water fleas, due to their jumping swimming resemblance to the movement of the fleas. Its short life span and reproductive capabilities make it an ideal organism for analytical use.
The swimming capability of Daphnia Magna was assessed after 48 hours of exposure to the diluted testing samples. The Daphnia were bred in the laboratory and should be no more than 24 hours old. The number of immobilized Daphnia was registered at 24 hours and 48 hours, for the calculation of EL50 and comparison with the control values. The EL50 is the effective concentration of the sample that is expected to cause immobilization to 50% of Daphnia.
Note that for this toxicity test, the leaching was obtained only from the WAF method test using the samples and Daphnia's mineral medium as […] because standard seawater is harmful to Daphnia.

COc1cc(C)c2c(=O)c3ccccc3oc2c1OC [XA13, 3,4-dimethoxy-1-methyl-9H-xanthen-9-one]
reduction of larval settlement ([1]; after 40 h): 29% | reduction of larval settlement ([1]; first 15 h): 50%

COc1cc(C(Br)Br)c2c(=O)c3ccccc3oc2c1OC [XA14, 1-(dibromomethyl)-3,4-dimethoxy-9H-xanthen-9-one]
toxicity to Artemia salina nauplii (Artemia salina): non-toxic effects

COc1cc(CO)c2c(=O)c3ccccc3oc2c1OC [XA12, 1-(hydroxymethyl)-3,4-dimethoxy-9H-xanthen-9-one]
toxicity to Artemia salina nauplii (Artemia salina): non-toxic effects

COc1cc(CN2CCCCC2)c2c(=O)c3ccccc3oc2c1OC [XA22, 3,4-dimethoxy-1-(piperidin-1-ylmethyl)-9H-xanthen-9-one]
toxicity to Artemia salina nauplii (Artemia salina): non-toxic effects

COc1cc(C=O)c2c(=O)c3ccccc3oc2c1OC [XA11, 3,4-dimethoxy-9-oxo-9H-xanthene-1-carbaldehyde]
toxicity to Artemia salina nauplii (Artemia salina): non-toxic effects

O=c1c2ccccc2oc2c(O)c(O)ccc12 [3,4dOHx, 3,4-dihydroxy-9H-xanthen-9-one]
toxicity to Artemia salina nauplii (Artemia salina): non-toxic effects | 50% inhibition of luminescence concentration (EC50) at 30 min [2]: > 750 µg/mL | EL50 (72 h) alga growth inhibition [3]: > 100 µg/mL | reduction in the larvae settlement ([1]; after 40 h): about 80% | reduction in the larvae settlement ([1]; after the first 15 h): 55% | incorporated antifoulant leached out of the polymeric matrix [4]: 0.008%

COc1cc(CN2CCc3c(N)cccc3C2)c2c(=O)c3ccccc3oc2c1OC [XA20, 1-((5-amino-3,4-dihydroisoquinolin-2(1H)-yl)methyl)-3,4-dimethoxy-9H-xanthen-9-one]
50% inhibition of luminescence concentration (EC50) at 30 min [2]: > 300 µg/mL | EL50 (72 h) alga growth inhibition [3]: > 125 µg/mL | EL50 (48 h) immobility (Daphnia magna): > 300 µg/mL

COc1cc(CN2CCN(CCO)CC2)c2c(=O)c3ccccc3oc2c1OC [XA18, 1-((4-(2-hydroxyethyl)piperazin-1-yl)methyl)-3,4-dimethoxy-9H-xanthen-9-one]
toxicity to Artemia salina nauplii (Artemia salina): non-toxic effects

CC1(C)CCc2cc3c(=O)c4ccccc4oc3c(O)c2O1 [XP13, 12-hydroxy-2,2-dimethyl-3,4-dihydro-2H,6H-pyrano[3,2-b]xanthen-6-one]
toxicity to Artemia salina nauplii (Artemia salina): non-toxic effects | 50% inhibition of luminescence concentration (EC50) at 30 min [2]: > 237 µg/mL

O=C(O)COc1ccc2c(=O)c3ccccc3oc2c1OCC(=O)O [D3,4 COOHX, 2,2′-((9-oxo-9H-xanthene-3,4-diyl)bis(oxy))diacetic acid]
toxicity to Artemia salina nauplii (Artemia salina): non-toxic effects

COC(=O)COc1ccc2c(=O)c3ccccc3oc2c1OCC(=O)OC [D3,4 OCH3X, dimethyl 2,2′-((9-oxo-9H-xanthene-3,4-diyl)bis(oxy))diacetate]
toxicity to Artemia salina nauplii (Artemia salina): non-toxic effects

COc1cc(CNCCN2CCOCC2)c2c(=O)c3ccccc3oc2c1OC [XA15, 3,4-dimethoxy-1-(((2-morpholinoethyl)amino)methyl)-9H-xanthen-9-one]
toxicity to Artemia salina nauplii (Artemia salina): non-toxic effects
